Assay results as given in patent publication US8357710B2, “Bicyclic angiotensin II agonists” (Vicore Pharma AB, priority 2005, dated 2013).

Experiments:
[1] = test system: duodenal mucosal alkaline secretion; assay: Test C: duodenal mucosal alkaline secretion assay in barbiturate-anaesthetised rats; type: in vivo, rat; conditions: co-administration with title compounds of the Examples
Source text: Duodenal Mucosal Alkaline Secretion Assay
Compounds were exposed to the duodenal mucosa in barbiturate-anaesthetised rats prepared for in situ titration of duodenal mucosal alkaline secretion, according to the methodology described by Flemström et al in Am. J. Physiol. (1982) 243, G348.

AT2 receptor = molecular target: T1, AT2 receptor (Sus scrofa, UniProt A0A4X1W622); conditions: read-out: dissociation constant (Kd), AT2 receptor; Scatchard analysis, porcine myometrial membranes, [L]=0.057 nM
T1 sequence (A0A4X1W622 1-362): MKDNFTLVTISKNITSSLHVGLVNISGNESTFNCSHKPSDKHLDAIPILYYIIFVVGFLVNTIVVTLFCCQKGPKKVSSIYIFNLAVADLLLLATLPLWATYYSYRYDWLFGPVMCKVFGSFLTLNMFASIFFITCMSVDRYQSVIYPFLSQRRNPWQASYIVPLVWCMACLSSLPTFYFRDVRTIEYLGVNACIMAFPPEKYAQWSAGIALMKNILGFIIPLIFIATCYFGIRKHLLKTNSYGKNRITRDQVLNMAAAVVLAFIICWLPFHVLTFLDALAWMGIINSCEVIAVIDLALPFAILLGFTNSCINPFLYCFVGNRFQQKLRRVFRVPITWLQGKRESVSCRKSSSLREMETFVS
Procedure: Myometrial membranes were prepared from porcine uteri according to the method by Nielsen et al (Clin. Exp. Pharm. Phys. (1997) 24, 309). […] Samples were incubated at 25° C. for 1 h, and binding was terminated by filtration through Whatman GF/B glass-fiber filter sheets using a Brandel cell harvester. The filters were washed with 3×3 mL of Tris-HCl (pH 7.4) and transferred to tubes. The radioactivity was measured using a gamma counter. […] The binding data were best fitted with a one-site fit. All experiments were performed at least in triplicate.

| Kd (AT2 receptor) | Compound | effect of co-administration on the stimulation of mucosal alkalisation by the title compounds [1] |
| --- | --- | --- |
| – | Cc1cc(Cn2cnc3c2C[C@@H](C(=O)O)N(C(=O)C(c2ccccc2)c2ccccc2)C3)ccc1N(C)C [PD123319] | blocked |
| 0.7 ± 0.1 nM | Asp^1-Arg^2-Val^3-Tyr^4-Ile^5-His^6-Pro^7-Phe^8 [Ang II] | – |
